Article PMC5218480 (PLoS ONE, 2017)

System: MV-4-11 cells
Assay: Gene expression microarray analysis (Affymetrix PrimeView) and GSEA
Assay type: cell-based, human
Design: RFU PODN (11730768_x_at) / Fold change /veh PODN (11730768_x_at) / RFU LINC00158 (11744669_a_at) / Fold change /veh LINC00158 (11744669_a_at) / RFU DUSP10 (11751237_a_at) / Fold change /veh DUSP10 (11751237_a_at) / RFU ID3 (11757404_x_at) / Fold change /veh ID3 (11757404_x_at) / RFU PLEKHG5 (11737974_s_at) / Fold change /veh PLEKHG5 (11737974_s_at) / RFU LRRC4B (11730491_at) / Fold change /veh LRRC4B (11730491_at) / RFU GIMAP4 (11747438_a_at) / Fold change /veh GIMAP4 (11747438_a_at) / RFU KRT8 (11758183_x_at) / Fold change /veh KRT8 (11758183_x_at) / RFU CNN1 (11734310_a_at) / Fold change /veh CNN1 (11734310_a_at) / RFU VPS37D (11726825_at) / Fold change /veh VPS37D (11726825_at) / RFU C10orf10 (11716522_x_at) / Fold change /veh C10orf10 (11716522_x_at) / RFU KIR2DL2 /// KIR2DL4 /// KIR2DL5A /// KIR2DL5B /// KIR2DS1 /// KIR2DS2 /// KIR2DS3 /// KIR2DS4 /// KIR3DL3 /// KIR3DL3 /// KIR3DS1 (11738374_at) / Fold change /veh KIR2DL2 /// KIR2DL4 /// KIR2DL5A /// KIR2DL5B /// KIR2DS1 /// KIR2DS2 /// KIR2DS3 /// KIR2DS4 /// KIR3DL3 /// KIR3DL3 /// KIR3DS1 (11738374_at) / RFU C1QL1 (11718748_at) / Fold change /veh C1QL1 (11718748_at) / RFU TMPRSS4 (11747572_a_at) / Fold change /veh TMPRSS4 (11747572_a_at) / RFU HAMP (11756126_x_at) / Fold change /veh HAMP (11756126_x_at) / RFU RNFT2 (11725882_a_at) / Fold change /veh RNFT2 (11725882_a_at) / RFU NR4A2 (11747474_a_at) / Fold change /veh NR4A2 (11747474_a_at) / RFU ABCC12 (11746883_a_at) / Fold change /veh ABCC12 (11746883_a_at) / RFU TMEM136 (11760407_x_at) / Fold change /veh TMEM136 (11760407_x_at) / RFU CLDN22 /// WWC2 (11732394_at) / Fold change /veh CLDN22 /// WWC2 (11732394_at) / RFU HLA-DPB1 (11760878_x_at) / Fold change /veh HLA-DPB1 (11760878_x_at) / RFU SPINT1 (11716480_a_at) / Fold change /veh SPINT1 (11716480_a_at) / RFU GAP43 (11754022_s_at) / Fold change /veh GAP43 (11754022_s_at) / RFU A4GNT (11735810_at) / Fold change /veh A4GNT (11735810_at) / RFU PRB3 (11715151_x_at) / Fold change /veh PRB3 (11715151_x_at) / RFU TUBB4B (11761932_at) / Fold change /veh TUBB4B (11761932_at) / RFU CAPN14 (11732068_a_at) / Fold change /veh CAPN14 (11732068_a_at) / RFU TMCC2 (11721928_a_at) / Fold change /veh TMCC2 (11721928_a_at) / RFU IRGQ (11745062_a_at) / Fold change /veh IRGQ (11745062_a_at) / RFU FAM174B (11720279_a_at) / Fold change /veh FAM174B (11720279_a_at) / RFU TMPRSS4 (11748680_a_at) / Fold change /veh TMPRSS4 (11748680_a_at) / RFU FAM212B (11763350_a_at) / Fold change /veh FAM212B (11763350_a_at) / RFU PLEKHG5 (11743358_a_at) / Fold change /veh PLEKHG5 (11743358_a_at) / RFU ZSCAN30 (11745921_a_at) / Fold change /veh ZSCAN30 (11745921_a_at) / RFU CMKLR1 (11741424_a_at) / Fold change /veh CMKLR1 (11741424_a_at) / RFU LOC101060620 /// MAPK8IP1 (11723275_at) / Fold change /veh LOC101060620 /// MAPK8IP1 (11723275_at) / RFU SPTSSB (11747773_x_at) / Fold change /veh SPTSSB (11747773_x_at) / RFU PRSS12 (11739890_at) / Fold change /veh PRSS12 (11739890_at) / RFU BIN1 (11741810_x_at) / Fold change /veh BIN1 (11741810_x_at) / RFU WNT11 (11732464_a_at) / Fold change /veh WNT11 (11732464_a_at) / RFU C10orf10 (11716521_a_at) / Fold change /veh C10orf10 (11716521_a_at) / RFU C5orf56 (11738089_at) / Fold change /veh C5orf56 (11738089_at) / RFU CYB561 (11721691_x_at) / Fold change /veh CYB561 (11721691_x_at) / RFU ANKRD19P (11752326_a_at) / Fold change /veh ANKRD19P (11752326_a_at) / RFU OR2T12 /// OR2T33 /// OR2T8 (11738714_s_at) / Fold change /veh OR2T12 /// OR2T33 /// OR2T8 (11738714_s_at) / RFU VCAN (11748164_a_at) / Fold change /veh VCAN (11748164_a_at) / RFU JSRP1 (11732532_at) / Fold change /veh JSRP1 (11732532_at) / RFU KRTAP10-11 (11738290_x_at) / Fold change /veh KRTAP10-11 (11738290_x_at) / RFU MYO3A (11730013_a_at) / Fold change /veh MYO3A (11730013_a_at) / RFU EBF3 (11725865_a_at) / Fold change /veh EBF3 (11725865_a_at) / RFU CAMK2N1 (11719241_x_at) / Fold change /veh CAMK2N1 (11719241_x_at) / RFU C5orf56 (11738088_a_at) / Fold change /veh C5orf56 (11738088_a_at) / RFU OLFML3 (11715873_a_at) / Fold change /veh OLFML3 (11715873_a_at) / RFU LOC100653217 /// NTM (11731650_a_at) / Fold change /veh LOC100653217 /// NTM (11731650_a_at) / RFU MAPK11 (11762145_a_at) / Fold change /veh MAPK11 (11762145_a_at) / RFU FIZ1 (11724087_x_at) / Fold change /veh FIZ1 (11724087_x_at) / RFU OASL (11726364_x_at) / Fold change /veh OASL (11726364_x_at) / RFU SOX15 (11748057_x_at) / Fold change /veh SOX15 (11748057_x_at) / RFU CD79A (11719716_a_at) / Fold change /veh CD79A (11719716_a_at) / RFU HIST1H1D (11736915_at) / Fold change /veh HIST1H1D (11736915_at) / RFU CASKIN2 (11723855_a_at) / Fold change /veh CASKIN2 (11723855_a_at) / RFU LOC730098 (11760151_x_at) / Fold change /veh LOC730098 (11760151_x_at) / RFU OR4N2 (11742367_at) / Fold change /veh OR4N2 (11742367_at) / RFU PRRT2 (11749266_a_at) / Fold change /veh PRRT2 (11749266_a_at) / RFU SNX32 (11753110_a_at) / Fold change /veh SNX32 (11753110_a_at) / RFU CDHR5 (11726645_a_at) / Fold change /veh CDHR5 (11726645_a_at) / RFU RCAN1 (11760418_a_at) / Fold change /veh RCAN1 (11760418_a_at) / RFU FAM167A (11723789_a_at) / Fold change /veh FAM167A (11723789_a_at) / RFU FAM26E (11764081_at) / Fold change /veh FAM26E (11764081_at) / RFU ISYNA1 (11749810_s_at) / Fold change /veh ISYNA1 (11749810_s_at) / RFU ACY1 (11761880_at) / Fold change /veh ACY1 (11761880_at) / RFU 11764098_at / Fold change /veh 11764098_at / RFU SAMD14 (11745864_x_at) / Fold change /veh SAMD14 (11745864_x_at) / RFU NPB (11741838_a_at) / Fold change /veh NPB (11741838_a_at) / RFU TMPRSS6 (11731388_a_at) / Fold change /veh TMPRSS6 (11731388_a_at) / RFU KRTAP10-2 (11738614_at) / Fold change /veh KRTAP10-2 (11738614_at) / RFU ARHGAP8 /// PRR5-ARHGAP8 (11727945_x_at) / Fold change /veh ARHGAP8 /// PRR5-ARHGAP8 (11727945_x_at) / RFU KRTAP5-7 /// NADSYN1 (11734609_at) / Fold change /veh KRTAP5-7 /// NADSYN1 (11734609_at) / RFU RASL12 (11751679_a_at) / Fold change /veh RASL12 (11751679_a_at) / RFU CDKN2B (11736163_a_at) / Fold change /veh CDKN2B (11736163_a_at) / RFU PRF1 (11729649_at) / Fold change /veh PRF1 (11729649_at) / RFU, ZNF638 /// ZNF638-IT1 / Fold change vs veh, ZNF638 /// ZNF638-IT1 / RFU, PANK3 / Fold change vs veh, PANK3 / RFU, SH3YL1 / Fold change vs veh, SH3YL1 / RFU, ZEB2 / Fold change vs veh, ZEB2 / RFU, NRIP1 / Fold change vs veh, NRIP1 / RFU, PTTG1IP / Fold change vs veh, PTTG1IP / RFU, CAPN2 / Fold change vs veh, CAPN2 / RFU, MED14 / Fold change vs veh, MED14 / RFU, SNORA58 / Fold change vs veh, SNORA58 / RFU, C1orf63 / Fold change vs veh, C1orf63 / RFU, LRRFIP1 / Fold change vs veh, LRRFIP1 / RFU, NDUFAF7 / Fold change vs veh, NDUFAF7 / RFU, SLC12A2 / Fold change vs veh, SLC12A2 / RFU, IBTK / Fold change vs veh, IBTK / RFU, ESF1 / Fold change vs veh, ESF1 / Fold change vs veh, TMEM50B / RFU, TAOK1 / Fold change vs veh, TAOK1 / RFU, ACBD3 / Fold change vs veh, ACBD3 / RFU, TMA16 / Fold change vs veh, TMA16 / RFU, RWDD3 / Fold change vs veh, RWDD3 / RFU, BCAT1 / Fold change vs veh, BCAT1 / RFU, EDEM3 / Fold change vs veh, EDEM3 / RFU, TMEM33 / Fold change vs veh, TMEM33 / RFU, WDR75 / Fold change vs veh, WDR75 / RFU, AHCTF1 / Fold change vs veh, AHCTF1 / RFU, TFRC / Fold change vs veh, TFRC / RFU, ZDHHC17 / Fold change vs veh, ZDHHC17 / RFU, NOM1 / Fold change vs veh, NOM1 / RFU, ARL8B / Fold change vs veh, ARL8B / RFU, ZBTB11 / Fold change vs veh, ZBTB11 / RFU, TAMM41 / Fold change vs veh, TAMM41 / RFU, KIAA1704 /// LOC100996395 / Fold change vs veh, KIAA1704 /// LOC100996395 / RFU, ING1 / Fold change vs veh, ING1 / RFU, TRMT61B / Fold change vs veh, TRMT61B / RFU, FUBP3 / Fold change vs veh, FUBP3 / RFU, TP53 / Fold change vs veh, TP53 / RFU, TNKS2 / Fold change vs veh, TNKS2 / RFU, ZFP14 / Fold change vs veh, ZFP14 / RFU, ACTR2 / Fold change vs veh, ACTR2 / RFU, PPP3R1 / Fold change vs veh, PPP3R1 / RFU, PIK3R1 / Fold change vs veh, PIK3R1 / RFU, HNRNPA1 / Fold change vs veh, HNRNPA1 / RFU, RNF170 / Fold change vs veh, RNF170 / RFU, ZNF28 / Fold change vs veh, ZNF28 / RFU, RNGTT / Fold change vs veh, RNGTT / RFU, OGT / Fold change vs veh, OGT / RFU, BRD1 / Fold change vs veh, BRD1 / RFU, MARS / Fold change vs veh, MARS / RFU, ZNF655 / Fold change vs veh, ZNF655 / RFU, FAHD1 / Fold change vs veh, FAHD1 / RFU, BDP1 / Fold change vs veh, BDP1 / RFU, LRRCC1 / Fold change vs veh, LRRCC1 / RFU, ARID1A / Fold change vs veh, ARID1A / RFU, ZNF146 / Fold change vs veh, ZNF146 / RFU, ZNF330 / Fold change vs veh, ZNF330 / RFU, GPN3 / Fold change vs veh, GPN3 / RFU, C9orf123 / Fold change vs veh, C9orf123 / RFU, N4BP2L2 / Fold change vs veh, N4BP2L2 / RFU, ARFIP1 / Fold change vs veh, ARFIP1 / RFU, FAM179B / Fold change vs veh, FAM179B / RFU, BCL10 / Fold change vs veh, BCL10 / RFU, UHRF1BP1L / Fold change vs veh, UHRF1BP1L / RFU, BET1 / Fold change vs veh, BET1 / RFU, CNOT2 / Fold change vs veh, CNOT2 / RFU, ZNF268 / Fold change vs veh, ZNF268 / Fold change vs veh, ZNF507 / RFU, DGCR2 / Fold change vs veh, DGCR2 / RFU, WDSUB1 / Fold change vs veh, WDSUB1 / Fold change vs veh, HSP90B1 /// MIR3652 / RFU, ADSS / Fold change vs veh, ADSS / RFU, GK / Fold change vs veh, GK / RFU, ZNF148 / Fold change vs veh, ZNF148 / RFU, TAF9 / Fold change vs veh, TAF9 / RFU, SLC1A5 / Fold change vs veh, SLC1A5 / RFU, SLMO2 / Fold change vs veh, SLMO2 / RFU, ABCC4 / Fold change vs veh, ABCC4 / RFU, LOC101060439 /// RAP1B / Fold change vs veh, LOC101060439 /// RAP1B / RFU, RFX7 / Fold change vs veh, RFX7 / RFU, GTPBP10 / Fold change vs veh, GTPBP10 / RFU, CNEP1R1 / Fold change vs veh, CNEP1R1 / RFU, BIVM-ERCC5 /// ERCC5 / Fold change vs veh, BIVM-ERCC5 /// ERCC5 / RFU, ILF3 / Fold change vs veh, ILF3 / RFU 11762660_at / Fold change /veh 11762660_at / RFU VCAN (11757783_s_at) / Fold change /veh VCAN (11757783_s_at) / RFU DDX43 (11728927_at) / Fold change /veh DDX43 (11728927_at) / RFU KRT8 (11758188_x_at) / Fold change /veh KRT8 (11758188_x_at) / RFU NKD1 (11759106_at) / Fold change /veh NKD1 (11759106_at) / RFU SRD5A1 (11742802_a_at) / Fold change /veh SRD5A1 (11742802_a_at) / RFU TPSAB1 /// TPSB2 (11721975_s_at) / Fold change /veh TPSAB1 /// TPSB2 (11721975_s_at) / RFU GSTM3 (11746129_a_at) / Fold change /veh GSTM3 (11746129_a_at) / RFU IL23R (11737362_x_at) / Fold change /veh IL23R (11737362_x_at) / RFU TMEM51 (11727254_a_at) / Fold change /veh TMEM51 (11727254_a_at) / RFU PIWIL2 (11732686_x_at) / Fold change /veh PIWIL2 (11732686_x_at) / RFU ORM1 (11744905_x_at) / Fold change /veh ORM1 (11744905_x_at) / RFU CCDC152 (11743942_at) / Fold change /veh CCDC152 (11743942_at) / RFU ECM1 (11717891_a_at) / Fold change /veh ECM1 (11717891_a_at) / RFU IL23R (11748794_a_at) / Fold change /veh IL23R (11748794_a_at) / RFU TNFAIP8L3 (11732012_x_at) / Fold change /veh TNFAIP8L3 (11732012_x_at) / RFU MBOAT4 (11741988_at) / Fold change /veh MBOAT4 (11741988_at) / RFU 11764193_at / Fold change /veh 11764193_at / RFU TMEM53 (11763286_at) / Fold change /veh TMEM53 (11763286_at) / RFU MAGEB2 (11727129_at) / Fold change /veh MAGEB2 (11727129_at) / RFU TMEM200A (11744735_a_at) / Fold change /veh TMEM200A (11744735_a_at) / RFU CCDC152 (11751479_a_at) / Fold change /veh CCDC152 (11751479_a_at) / RFU FAM211A (11726209_a_at) / Fold change /veh FAM211A (11726209_a_at) / RFU RGS16 (11746705_a_at) / Fold change /veh RGS16 (11746705_a_at) / RFU VCAN (11755009_s_at) / Fold change /veh VCAN (11755009_s_at) / RFU RHOB (11743442_s_at) / Fold change /veh RHOB (11743442_s_at) / RFU RGS16 (11720943_a_at) / Fold change /veh RGS16 (11720943_a_at) / RFU RGS16 (11720944_at) / Fold change /veh RGS16 (11720944_at) / RFU, VPS4B / Fold change vs veh, VPS4B / RFU, CREB1 / Fold change vs veh, CREB1 / RFU, DNAJC13 / Fold change vs veh, DNAJC13 / RFU, GNAQ / Fold change vs veh, GNAQ / RFU, CDK5R1 / Fold change vs veh, CDK5R1 / RFU, ZRANB3 / Fold change vs veh, ZRANB3 / RFU, CUL4A / Fold change vs veh, CUL4A / RFU, CCNY / Fold change vs veh, CCNY / RFU, UFL1 / Fold change vs veh, UFL1 / RFU, COG3 / Fold change vs veh, COG3 / RFU, DIAPH2 / Fold change vs veh, DIAPH2 / RFU, SKA2 / Fold change vs veh, SKA2 / RFU, AFF3 / Fold change vs veh, AFF3 / RFU, LMF1 / Fold change vs veh, LMF1 / RFU, IPO11 / Fold change vs veh, IPO11 / RFU, DFFB / Fold change vs veh, DFFB / RFU, FOXP1 / Fold change vs veh, FOXP1 / RFU, CARD8 / Fold change vs veh, CARD8 / RFU, STRN3 / Fold change vs veh, STRN3 / RFU, ADK / Fold change vs veh, ADK / RFU, RASSF2 / Fold change vs veh, RASSF2 / RFU, WIPF1 / Fold change vs veh, WIPF1 / RFU, LARP1B / Fold change vs veh, LARP1B / RFU, RASA1 / Fold change vs veh, RASA1 / RFU, RB1 / Fold change vs veh, RB1 / RFU, PPFIA1 / Fold change vs veh, PPFIA1 / RFU, MAT2A / Fold change vs veh, MAT2A / RFU, CCT5 / Fold change vs veh, CCT5 / RFU, WDR92 / Fold change vs veh, WDR92 / RFU, CUX1 / Fold change vs veh, CUX1 / RFU, TTC7A / Fold change vs veh, TTC7A / RFU, TMEM135 / Fold change vs veh, TMEM135 / RFU, DEPTOR / Fold change vs veh, DEPTOR / RFU, CPM / Fold change vs veh, CPM / RFU, DNAJB6 / Fold change vs veh, DNAJB6 / RFU, CACNA2D3 / Fold change vs veh, CACNA2D3 / RFU, DTX4 / Fold change vs veh, DTX4 / RFU, TFCP2 / Fold change vs veh, TFCP2 / RFU, GMCL1 /// GMCL1P1 / Fold change vs veh, GMCL1 /// GMCL1P1 / RFU, AEBP2 / Fold change vs veh, AEBP2 / RFU, SNHG1 /// SNORD22 /// SNORD25 /// SNORD26 /// SNORD27 /// SNORD28 /// SNORD29 /// SNORD31 / Fold change vs veh, SNHG1 /// SNORD22 /// SNORD25 /// SNORD26 /// SNORD27 /// SNORD28 /// SNORD29 /// SNORD31 / Fold change (Aza/veh), C12orf56 (ProbeSet 11735607_a_at) / Fold change (ACY-1035/veh), C12orf56 (ProbeSet 11735607_a_at) / Fold change (Aza/veh), FGFR1OP (ProbeSet 11751329_s_at) / Fold change (ACY-1035/veh), FGFR1OP (ProbeSet 11751329_s_at) / Fold change (Aza/veh), VPS36 (ProbeSet 11739960_a_at) / Fold change (ACY-1035/veh), VPS36 (ProbeSet 11739960_a_at) / RFU SYPL1 (11715823_x_at) / Fold change /veh SYPL1 (11715823_x_at) / RFU IGFBP7 (11715501_s_at) / Fold change /veh IGFBP7 (11715501_s_at) / RFU REEP3 (11722064_at) / Fold change /veh REEP3 (11722064_at) / RFU IGLL1 (11728026_x_at) / Fold change /veh IGLL1 (11728026_x_at): dose or concentration left out as unconfirmed
Conditions: ProbeSet 11758170_s_at; LIST D

`Nc1ncn([C@@H]2O[C@H](CO)[C@@H](O)[C@H]2O)c(=O)n1` [azacitidine] was tested, and the “Fold change vs veh, DIAPH2” value was 0.72.
